Test results from patent publication US20250215029A1 (Recludix Pharma, Inc., priority 2022, published 2025).
Read-outs that look alike come from different tables or passages of the source.

Legend:
[1] = target: T1, Recombinant STAT6 protein (STAT6 (W123-T658)) (Homo sapiens, UniProt P42226); test: STAT6 Fluorescence Polarization (FP) Assay; type: binding; details: 45-minute incubation
T1 construct: Recombinant STAT6 protein (STAT6 (W123-T658))
T1 sequence (P42226 123-658): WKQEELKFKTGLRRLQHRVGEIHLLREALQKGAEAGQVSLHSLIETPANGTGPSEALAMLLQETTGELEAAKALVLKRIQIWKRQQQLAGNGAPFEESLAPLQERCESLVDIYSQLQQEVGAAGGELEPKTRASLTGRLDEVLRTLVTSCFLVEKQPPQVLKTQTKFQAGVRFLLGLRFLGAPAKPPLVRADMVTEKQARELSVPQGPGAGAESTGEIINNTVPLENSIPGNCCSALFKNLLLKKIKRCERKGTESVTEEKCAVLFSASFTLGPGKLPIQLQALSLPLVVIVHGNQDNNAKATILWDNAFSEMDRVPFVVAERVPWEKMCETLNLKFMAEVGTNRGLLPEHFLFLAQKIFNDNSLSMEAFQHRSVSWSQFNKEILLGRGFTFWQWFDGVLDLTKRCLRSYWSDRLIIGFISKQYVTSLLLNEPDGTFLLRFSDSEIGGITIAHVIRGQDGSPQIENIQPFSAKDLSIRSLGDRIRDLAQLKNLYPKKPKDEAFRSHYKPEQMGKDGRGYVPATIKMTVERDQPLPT
In short: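 Protein-probe mix (250 nM STAT6 W123-T658, 2 nM 5-FAM-pTyr peptide) in 10 mM HEPES pH 7.4, 50 mM NaCl, 1 mM EDTA, 0.05% Tween 20, 2 mM DTT; added to compound dilution series, 1% DMSO final; 45 min RT; FP read; IC50 via nonlinear regression.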

[2] = target: T2, Recombinant STAT3 protein (STAT3 (G127-I722)) (Homo sapiens, UniProt P40763); test: STAT3 Fluorescence Polarization (FP) Assay; type: binding; details: probe 5-FAM-GpYLPQTV-NH2 2 nM, 45-minute incubation
T2 construct: Recombinant STAT3 protein (STAT3 (G127-I722))
T2 sequence (P40763 127-722): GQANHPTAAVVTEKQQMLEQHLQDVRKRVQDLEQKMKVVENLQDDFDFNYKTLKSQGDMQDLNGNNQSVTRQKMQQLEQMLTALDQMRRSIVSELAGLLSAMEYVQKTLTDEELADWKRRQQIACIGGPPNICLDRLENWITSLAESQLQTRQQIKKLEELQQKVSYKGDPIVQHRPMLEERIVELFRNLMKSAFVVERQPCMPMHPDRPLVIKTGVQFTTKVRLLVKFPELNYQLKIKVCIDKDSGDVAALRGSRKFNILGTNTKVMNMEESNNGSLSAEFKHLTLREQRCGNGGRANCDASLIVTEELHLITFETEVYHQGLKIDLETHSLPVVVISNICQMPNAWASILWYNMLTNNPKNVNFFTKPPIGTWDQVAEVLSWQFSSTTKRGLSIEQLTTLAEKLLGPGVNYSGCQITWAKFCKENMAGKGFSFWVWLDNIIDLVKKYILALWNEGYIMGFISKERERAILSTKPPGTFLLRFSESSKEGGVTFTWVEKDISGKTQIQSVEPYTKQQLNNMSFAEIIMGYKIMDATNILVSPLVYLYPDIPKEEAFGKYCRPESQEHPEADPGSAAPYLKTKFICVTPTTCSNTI
In short: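 Displacement of a 2 nM 5-FAM-labelled pY peptide (GpYLPQTV) from 25 nM recombinant STAT3 (G127-I722) was monitored by fluorescence polarization. Incubation lasted 45 min at room temperature in pH 7.4 HEPES buffer containing 1% DMSO.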

[3] = STAT6 (W123-T658) 250 nM, probe 5-FAM-Ap[…]-NH2 2 nM, read-out: STAT6 (FP assay IC50 class)
[4] = STAT3 (G127-I722) 25 nM, read-out: STAT3 (FP assay IC50 class)

IC50 ([1]; STAT6 250 nM, probe 5-FAM-Ap[…]-NH2 2 nM, read-out: STAT6 (FP assay IC50)) [µM]	IC50 ([2]; STAT3 25 nM, read-out: STAT3 (FP assay IC50)) [µM]	IC50 [1, 3] [µM]	IC50 [2, 4] [µM]	Structure (SMILES)	IC50 ([1]; STAT6 (W123-T658) 250 nM, probe 5-FAM-ApYKPFQDLI-NH2 2 nM, read-out: STAT6 (FP assay IC50 class)) [µM]
≤ 0.3	0.1 to 1	–	–	O=C(N[C@H]1CCCC[C@H]2CC[C@@H](C(=O)N3CC[C@@H](c4ccccc4)C3)N2C1=O)c1cc2cc(C(F)(F)P(=O)(O)O)ccc2s1 [Compound 82, (difluoro(2-(((3S,6S,10aS)-5-oxo-3-((S)-3-phenylpyrrolidine-1-carbonyl)decahydropyrrolo [1,2-a]azocin-6-yl)carbamoyl)benzo[b]thiophen-5-yl)methyl) phosphonic acid]	–
–	–	0.3 to 3	< 0.1	NC(=O)N1C[C@H](NC(=O)[C@@H]2CC[C@@H]3CCCC[C@H](NC(=O)c4cc5cc(C(F)P(=O)(O)O)ccc5s4)C(=O)N32)[C@@H](F)C1 (stereo partly drawn) [Compound 558, ((2-(((3S,6S,10aS)-3-(((3S,4S)-1-carbamoyl-4-fluoropyrrolidin-3-yl)carbamoyl)-5-oxodecahydropyrrolo[1,2-a]azocin-6-yl)carbamoyl)benzo[b]thiophen-5-yl)fluoromethyl)phosphonic acid]	–
–	–	3 to 30	1 to 10	O=C(N[C@H]1CCCC[C@H]2CC[C@@H](C(=O)N3CCC(c4n[nH]cc4F)CC3)N2C1=O)c1cc2cc(C(F)P(=O)(O)O)ccc2s1 (stereo partly drawn) [Compound 587, (fluoro(2-(((3S,6S,10aS)-3-(4-(4-fluoro-1H-pyrazol-3-yl)piperidine-1-carbonyl)-5-oxodecahydropyrrolo[1,2-a]azocin-6-yl)carbamoyl)benzo[b]thiophen-5-yl)methyl)phosphonic acid]	–
–	–	≤ 0.3	1 to 10	N#C[C@H]1[C@H](c2ccccc2)CN(C(=O)[C@@H]2CC[C@@H]3C[C@@H](N4CCC4)CC[C@H](NC(=O)c4cc5cc([C@H](F)P(=O)(O)O)ccc5s4)C(=O)N32)C12CC2 (single isomer, unassigned) [Compound 936]	–
–	–	≤ 0.3	1 to 10	N#CC1C(c2ccccc2)CN(C(=O)[C@@H]2CC[C@@H]3CCC[C@H](NC(=O)c4cc5cc(C(F)(F)P(=O)(O)O)ccc5s4)C(=O)N32)C12CC2 (stereo in doubt) [Compound 865, ((2-(((3S,6S,9aS)-3-((6S,7R)-7-cyano-6-phenyl-4-azaspiro[2.4]heptane-4-carbonyl)-5-oxooctahydro-1H-pyrrolo[1,2-a]azepin-6-yl)carbamoyl)benzo [b]thiophen-5-yl)difluoromethyl) phosphonic acid]	–
–	–	0.3 to 3	0.1 to 1	COc1cccnc1C1CN(C(=O)[C@@H]2CC[C@@H]3CCC[C@H](NC(=O)c4cc5cc(C(F)(F)P(=O)(O)O)ccc5s4)C(=O)N32)C1 [Compound 826, (difluoro(2-(((3S,6S,9aS)-3-(3-(3-methoxypyridin-2-yl)azetidine-1-carbonyl)-5-oxooctahydro-1H-pyrrolo[1,2-a]azepin-6-yl)carbamoyl)benzo [b]thiophen-5-yl)methyl) phosphonic acid]	–
–	–	3 to 30	0.1 to 1	COc1ccncc1C1CN(C(=O)[C@@H]2CC[C@@H]3CCC[C@H](NC(=O)c4cc5cc(CP(=O)(O)O)ccc5s4)C(=O)N32)C1 [Compound 502, ((2-(((3S,6S,9aS)-3-(3-(4-methoxypyridin-3-yl)azetidine-1-carbonyl)-5-oxooctahydro-1H-pyrrolo[1,2-a]azepin-6-yl)carbamoyl)benzo[b]thiophen-5-yl)methyl)phosphonic acid]	–
–	–	3 to 30	1 to 10	CC(c1ccc2ccc(C(=O)N[C@H]3CCCC[C@H]4CC[C@@H](C(=O)N5C[C@@H](c6ccccc6)CC56CC6)N4C3=O)cc2c1)P(=O)(O)O (single isomer, unassigned) [Compound 897]	–
–	–	0.3 to 3	1 to 10	C[C@@H]1CC[C@H](NC(=O)c2ccc3ccc(CP(=O)(O)O)cc3c2)C(=O)N2[C@H](CC[C@H]2C(=O)N2CC(c3ccccc3)CC23CC3)C1 (stereo partly drawn) [Compound 887, ((7-(((3S,6S,9R,10aR)-9-methyl-5-oxo-3-(6-phenyl-4-azaspiro[2.4]heptane-4-carbonyl)decahydropyrrolo[1,2-a]azocin-6-yl)carbamoyl)naphthalen-2-yl)methyl) phosphonic acid]	–
–	–	3 to 30	< 0.1	N#CC1CN(c2ccncc2C2CN(C(=O)[C@@H]3CC[C@@H]4CCC[C@H](NC(=O)c5cc6cc(CP(=O)(O)O)ccc6s5)C(=O)N43)C2)C1 [Compound 680, ((2-(((3S,6S,9aS)-3-(3-(4-(3-cyanoazetidin-1-yl)pyridin-3-yl)azetidine-1-carbonyl)-5-oxooctahydro-1H-pyrrolo[1,2-a]azepin-6-yl)carbamoyl)benzo [b]thiophen-5-yl)methyl) phosphonic acid]	–
–	–	3 to 30	< 0.1	Cn1cnnc1C1CN(C(=O)[C@@H]2CC[C@@H]3CCC[C@H](NC(=O)c4cc5cc(C(F)(F)P(=O)(O)O)ccc5s4)C(=O)N32)C1 [Compound 779, (difluoro(2-(((3S,6S,9aS)-3-(3-(4-methyl-4H-1,2,4-triazol-3-yl)azetidine-1-carbonyl)-5-oxooctahydro-1H-pyrrolo[1,2-a]azepin-6-yl)carbamoyl)benzo [b]thiophen-5-yl)methyl) phosphonic acid]	–
–	–	3 to 30	< 0.1	O=C(N[C@H]1CCC[C@H]2CC[C@@H](C(=O)N3CC(c4cccnc4)C3)N2C1=O)c1cc2cc([C@H](F)P(=O)(O)O)ccc2s1 [Compound 870, ((R)-fluoro(2-(((3S,6S,9aS)-5-oxo-3-(3-(pyridin-3-yl)azetidine-1-carbonyl)octahydro-1H-pyrrolo[1,2-a]azepin-6-yl)carbamoyl)benzo [b]thiophen-5-yl)methyl) phosphonic acid]	–
–	–	3 to 30	< 0.1	CCOc1ccncc1C1CN(C(=O)[C@@H]2CC[C@@H]3CCC[C@H](NC(=O)c4cc5cc([C@@H](F)P(=O)(O)O)ccc5s4)C(=O)N32)C1 (single isomer, unassigned) [Compound 771]	–
–	–	0.3 to 3	0.1 to 1	O=C(N[C@H]1CCCC[C@H]2CC[C@@H](C(=O)N[C@H]3COCC3F)N2C1=O)c1cc2cc(C(F)(F)P(=O)(O)O)ccc2s1 (relative stereo) [Compound 1109, (difluoro(2-(((3S,6S,10aS)-3-(((rel-trans)-4-fluorotetrahydrofuran-3-yl)carbamoyl)-5-oxodecahydropyrrolo[1,2-a]azocin-6-yl)carbamoyl)benzo[b]thiophen-5-yl)methyl)phosphonic acid]	–
–	–	0.3 to 3	< 0.1	COc1ccncc1[C@H]1CCN(C(=O)[C@@H]2CC[C@@H]3CCC[C@H](NC(=O)c4cc5cc(C(F)P(=O)(O)O)ccc5s4)C(=O)N32)C1 (stereo partly drawn) [Compound 707, (fluoro(2-(((3S,6S,9aS)-3-((R)-3-(4-methoxypyridin-3-yl)pyrrolidine-1-carbonyl)-5-oxooctahydro-1H-pyrrolo[1,2-a]azepin-6-yl)carbamoyl)benzo [b]thiophen-5-yl)methyl) phosphonic acid]	–
–	–	≤ 0.3	1 to 10	O=C(N[C@H]1CCCC[C@H]2CC[C@@H](C(=O)N3C[C@H](c4cccnc4)CC34CC4)N2C1=O)c1cc2cc([C@H](F)P(=O)(O)O)ccc2s1 (single isomer, unassigned) [Compound 911]	–

Structure (SMILES)	IC50 ([1]; STAT6 250 nM, probe 5-FAM-Ap[…]-NH2 2 nM, read-out: STAT6 (FP assay IC50)) [µM]	IC50 ([2]; STAT3 25 nM, read-out: STAT3 (FP assay IC50)) [µM]	IC50 [1, 3] [µM]	IC50 [2, 4] [µM]	IC50 ([1]; STAT6 (W123-T658) 250 nM, probe 5-FAM-ApYKPFQDLI-NH2 2 nM, read-out: STAT6 (FP assay IC50 class)) [µM]
CC(C)[C@@H]1CC[C@H](NC(=O)c2cc3cc(C(F)P(=O)(O)O)ccc3s2)C(=O)N2[C@H](CC[C@H]2C(=O)N2C[C@H](c3ccccc3)[C@@H](C#N)C2)C1 (single isomer, unassigned) [Compound 212]	–	–	–	1 to 10	≤ 0.3
